Assay results reported in PMC4658304 (Nuclear medicine and biology, 2015).
Values joined by “and” are separate entries in the source; they are usually repeats but may differ in a detail not shown here. Equal values may be shown once. Read-outs that look alike come from different tables or passages of the source.

Columns and labels:
mGluR1 [1] = target: T1, mGluR1 (Macaca mulatta, UniProt I2CU04); settings: baseline
[2] = cited from earlier work
[3] = Stability in monkey whole blood and plasma; format: in vitro ADME; settings: 30 min, room temperature
[4] = Emergence of radiometabolites in monkey plasma; format: in vivo, rhesus monkey
[5] = Stability in sodium phosphate buffer; format: physicochemical; settings: sodium phosphate buffer 0.15 M pH 7.4, 57 min, room temperature, n = 4
[6] = Stability of formulated radioligand in saline containing ethanol; format: physicochemical; settings: saline containing ethanol (10% v/v), 1 h, room temperature, HPLC
mGluR1 [7] = target: T1, mGluR1; assay: Two-tissue compartmental modeling of PET data
Plasma free fraction = format: in vitro ADME; settings: rhesus monkey plasma, pre-blocked condition (JNJ16259685 3 mg/kg i.v.), n = 3
[8] = monkey brain homogenates, 30 min, room temperature
mGluR1 [9] = target: T1, mGluR1; settings: cited from earlier work; for peak uptake in mGluR1-rich cerebellum: rhesus monkey
mGluR1 [10] = settings: read-out: IC50 (mGluR1 affinity); mGluR1 radioligand affinity; cited from earlier work

T1 sequence (I2CU04 19-1195): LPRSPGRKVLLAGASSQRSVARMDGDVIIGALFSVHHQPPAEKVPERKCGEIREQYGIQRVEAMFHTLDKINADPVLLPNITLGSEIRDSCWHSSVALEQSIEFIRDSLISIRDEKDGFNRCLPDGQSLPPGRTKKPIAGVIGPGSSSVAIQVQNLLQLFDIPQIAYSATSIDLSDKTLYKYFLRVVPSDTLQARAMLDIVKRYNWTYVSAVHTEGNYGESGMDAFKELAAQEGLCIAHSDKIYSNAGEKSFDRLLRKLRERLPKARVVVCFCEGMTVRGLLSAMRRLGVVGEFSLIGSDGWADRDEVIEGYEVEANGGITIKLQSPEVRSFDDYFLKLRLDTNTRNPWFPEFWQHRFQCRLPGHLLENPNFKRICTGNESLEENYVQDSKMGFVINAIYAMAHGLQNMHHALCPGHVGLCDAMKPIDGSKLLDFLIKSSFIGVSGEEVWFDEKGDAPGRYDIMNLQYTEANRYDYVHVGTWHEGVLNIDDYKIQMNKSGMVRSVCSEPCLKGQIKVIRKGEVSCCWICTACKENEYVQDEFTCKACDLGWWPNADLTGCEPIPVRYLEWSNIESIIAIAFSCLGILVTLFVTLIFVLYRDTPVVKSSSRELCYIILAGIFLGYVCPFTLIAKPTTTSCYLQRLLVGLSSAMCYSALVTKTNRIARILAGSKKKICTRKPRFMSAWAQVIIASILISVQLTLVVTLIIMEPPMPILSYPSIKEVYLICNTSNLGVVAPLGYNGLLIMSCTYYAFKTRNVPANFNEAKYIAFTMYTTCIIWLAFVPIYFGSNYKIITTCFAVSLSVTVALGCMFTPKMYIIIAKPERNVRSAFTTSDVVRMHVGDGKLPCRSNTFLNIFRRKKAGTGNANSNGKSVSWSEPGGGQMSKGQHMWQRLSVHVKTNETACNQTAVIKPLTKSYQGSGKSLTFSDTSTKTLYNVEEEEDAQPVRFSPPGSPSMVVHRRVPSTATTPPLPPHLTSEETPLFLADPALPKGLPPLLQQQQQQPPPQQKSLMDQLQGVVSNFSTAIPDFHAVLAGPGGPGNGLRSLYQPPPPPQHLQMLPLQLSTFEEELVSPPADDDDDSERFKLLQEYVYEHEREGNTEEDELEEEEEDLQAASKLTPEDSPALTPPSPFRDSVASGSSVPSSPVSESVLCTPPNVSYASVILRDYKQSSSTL

## CNc1cc(-c2csc(N(C)C(=O)c3ccc(F)cc3)n2)ncn1 [[^11C]FIMX, [carbonyl-^11C]4-Fluoro-N-methyl-N-(4-(6-(methylamino)pyrimidin-4-yl)thiazol-2-yl)benzamide]
mGluR1 [1]
  peak radioactivity uptake in frontal cortex: 4.23 SUV
  peak radioactivity uptake in hippocampus: 4.47 SUV
  peak radioactivity uptake in occipital cortex: 3.67 SUV
  peak radioactivity uptake in thalamus: 6.00 SUV
mGluR1 [1]; 85 min after injection
  cerebellum radioactivity level at 85 min: 5.74 SUV
mGluR1 [1]; at 85 min after injection
  decrease of cerebellum radioactivity from peak: 32%
mGluR1 [1]; i.v.
  time of peak regional brain radioactivity uptake: around 12.5 min
mGluR1 [1]; receptor-rich cerebellum
  peak radioactivity uptake in cerebellum: 8.50 SUV and 8.5 SUV
[2]
  logD obtained without correction for instability: 2.52
[3]; monkey plasma
  unchanged radioligand in plasma: 91%
[3]; monkey whole blood
  unchanged radioligand in whole blood: 92%
[4]; baseline, 10 min after i.v. injection
  percentage of total plasma radioactivity represented by parent: 31%
[4]; baseline, 30 min after i.v. injection
  percentage of total plasma radioactivity represented by parent: 21%
[4]; preblocked condition, 10 min after i.v. injection
  percentage of total plasma radioactivity represented by parent: 43%
[4]; preblocked condition, 30 min after i.v. injection
  percentage of total plasma radioactivity represented by parent: 31%
[5]
  remaining fraction of original radiochemical purity in buffer: 79.1 ± 3.3%
[6]
  unchanged radioligand in formulation: > 97%
mGluR1 [7]; baseline
  imaging time after which VT appeared stable in all brain regions: 60 min
mGluR1 [7]; baseline scans, two-tissue compartment model
  imaging time by which VT is within 10% of terminal value: ≤ 40 min
mGluR1 [7]; baseline vs preblock with JNJ16259685
  reduction of VT in cerebellum by preblock: ~90%
mGluR1 [7]; rhesus monkey cerebellum, baseline
  VT in cerebellum: 13 mL/cm^3
Plasma free fraction
  plasma free fraction (fP): 0.042 ± 0.003
[8]
  unchanged radioligand in brain homogenates: 99.4%

## Cc1ccc(C(=O)N(C)c2nc(-c3cc(NC(C)C)ncn3)cs2)cc1 [[^11C]ITDM, [^11C]N-[4-[6-(isopropylamino)pyrimidin-4-yl]-1,3-thiazol-2-yl]-4-methyl-N-methylbenzamide]
mGluR1 [9]
  peak uptake in mGluR1-rich cerebellum: < 1.3 SUV

## COc1ccc(C(=O)N(C)c2nc(-c3cc(NC(C)C)ncn3)cs2)cc1 [[^11C]ITMM, [^11C]N-[4-[6-(isopropylamino)pyrimidin-4-yl]-1,3-thiazol-2-yl]-4-methoxy-N-methylbenzamide]
mGluR1 [9]
  peak uptake in mGluR1-rich cerebellum: < 1.3 SUV

## CNc1cc(-c2csc(N(C)C(=O)c3ccc([18F])cc3)n2)ncn1 [[^18F]FIMX, [^18F]4-fluoro-N-methyl-N-(4-(6-(methylamino)pyrimidin-4-yl)thiazol-2-yl)benzamide]
mGluR1 [9]; at 90 min after injection
  decrease of cerebellum radioactivity from peak: 37%
mGluR1 [10]
  IC50: 1.8 nM
